Each block holds one compound with its values, some of them ahead of it.
Tests used:
[1] = system: intestinal Fgf15; assay: BA-enriched diet in mice: intestinal FXR target gene expression; type: in vivo, mouse; conditions: C57BL/6 J mice, 0.5% (w/w) chow diet
Description: (§1) RNA was extracted from cells or snap-frozen tissue samples (approximately 50 mg) using Trizol according to the manufacturer’s instructions and as described previously in detail. Liver samples were homogenized before extraction in a MagNA Lyser at 6500 rpm for 2 × 20 s intervals. Concentration and quality (absorbance 260/280 & […] ratios) of RNA was measured on a NanoDrop™ 2000 spectrophotometer. Isolated RNA was reverse-transcribed by using the SuperScript II cDNA synthesis enzyme according to the manufacturer’s instructions. Primers used for RT-qPCR were designed using the open-source program Primer3. Primers were designed to span exon-intron boundaries with an amplicon size of less than 150 bp. Relative changes were calculated using a standard curve and 36b4 as the reference genes.
Fig. 6.

[2] = system: hepatic Cyp7a1; assay: BA-enriched diet in mice: hepatic BA synthesis gene expression; type: in vivo, mouse; conditions: for Cyp7a1 levels in the liver: C57BL/6 J mice, 0.5% (w/w) chow diet
Description: as §1
(§2) All animals were housed with a 12-h light-dark cycle in humidity and temperature-controlled conditions and permitted ad libitum consumption of water and a standard mouse diet (Altromin 1324, Lage, Germany). All the experiments were approved by the European Directive 2010/63/EU and approved by the Austrian Federal Ministry of Education, Science and Research (Vienna, Austria; BMWFW-66.010/0124-V/3b/2018, BMWFW-66.010/0129-WF/V/3b/2016, and the Institutional Animal Care and Use Committees at Emory University and were in conformity with the Austrian/US animal law. The Ostα^−/−, Asbt^−/−, Ostα-Asbt DKO (double knockout) and Fxr^−/−mice were generated as previously described. Experiments were performed in 8–12 weeks-old mice. Mice were fed a chow diet (Altromin 1324, Lage, Germany); for BA supplementation experiments, male mice were fed 0.5% (w/w) diet of the indicated BA for the indicated time. CBDL was performed as described previously. Mice were euthanized by decapitation and tissues including liver and intestine were immediately dissected, weighed and frozen in liquid nitrogen for subsequent molecular analysis or preserved for histological analysis.
Fig. 6. Regulation of FXR target genes in vivo after treatment with unconjugated and conjugated bile acids.
Fig. 7.

[3] = system: FXR target genes (Ostb, Kng1); assay: FXR target gene mRNA/pre-mRNA expression in HepG2 cells (qRT-PCR); type: cell-based, human; conditions: 6 h
Description: as §1
Fig. 1.

[4] = molecular target: T1, FXR ligand binding domain (NucleoBAS) (Homo sapiens, UniProt Q96RI1); assay: Confocal FRET bile acid sensor (NucleoBAS) in U2OS cells; type: cell-based; conditions: NTCP-NucleoBAS cells in CFBS
T1 construct: nuclear localisation (sensor targeted to the nucleus; signal not described); expressed in transfected cells; host or cells: U2OS cells stably expressing NucleoBAS (PEI transfection, colony selection); some experiments with co-expressed NTCP-mKate2
T1 sequence (Q96RI1 262-486 limits assumed): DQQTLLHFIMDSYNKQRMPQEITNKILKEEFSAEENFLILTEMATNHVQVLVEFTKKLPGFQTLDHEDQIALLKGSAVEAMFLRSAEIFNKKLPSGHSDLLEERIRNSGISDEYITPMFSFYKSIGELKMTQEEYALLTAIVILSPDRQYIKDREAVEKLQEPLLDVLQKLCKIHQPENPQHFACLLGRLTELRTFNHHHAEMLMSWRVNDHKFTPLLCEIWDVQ
Excerpt: Fig. 3.
Fig. 4. […] Error bars represent the SEM.
(§3) (1 picture or pasted object on this page, not shown here)

[5] = system: Bsep; assay: Hepatic Bsep pre-mRNA and mRNA in animals treated with GSK2324; type: in vivo; conditions: animals treated with GSK2324, liver
Description: Supplementary Figure 2. (A) Hepatic expression of bile acid transport (Bsep) and BA-synthesis gene (Cyp7a1) pre-mRNA and mRNA after treatment with either vehicle or the synthetic FXR agonist GSK2324 for 30 minutes (n = 7-8), 1 hour (n = 8), or 2 hours (n = 7-8) before sacrifice; values represent the mean ± SEM. *p<0.05, #p<0.01. Effect of the synthetic FXR ligand (GW4064) and isoBAs (isoCDCA, isoDCA, isoUDCA) on mRNA (B) and pre-mRNA (C) levels of Ostb, Kng1, Shp in HepG2 cells treated over time; n=3. Values represent the mean ± SEM.
as §3

[6] = system: human ASBT; parameters: method as in PMID 24328955; conditions: cited from earlier work
[7] = Metabolism of isoBAs in HepG2 cells (LC-MS); type: in vitro ADME, human; conditions: 4 h
Description: The protocol has been published in detail previously. Briefly, internal standards were added to cells in 12-well plates and cells were lysed in methanol. The debris was pelleted, the supernatant dried and dissolved in running buffer. BAs were separated by HPLC using a C18 reversed phase or pentafluorophenyl column prior to quantification by mass spectrometry.
Having established suitable analytical methods, we focused on the metabolism of isoBAs and their 3-alpha-epimers in vitro, using conditions similar to our cell-based FXR assays. […] This may indicate that the presence of the 12-hydroxy group prevents further metabolism into 3α-BAs. It was also observed that a very small amount of 3α-OH BAs were converted to 3-keto intermediates (Fig. 2B, C).
Fig. 2. IsoBAs are metabolized into (3-keto/oxo) derivatives and are partially re-epimerized into 3-alpha hydroxy BAs. HepG2 cells were incubated with (A) isoBAs or (B) their 3-alpha-epimers for 4 h. BAs were measured on C-18 column by LC/MS. Upper panel BAs and isoBAs; lower panel keto/oxo derivatives after incubation. Chromatograms of isoBA-standards are shown in Supplementary Fig. 3A. (C) Merged chromatograms of (A) & (B). […] (*) conversion of isoBAs into 3-alpha hydroxy BAs. (m/z) mass divided by charge number.

[8] = system: FXR target genes; assay: Single dose gavage of (iso)BAs followed by GW4064 in mice, FXR target genes; type: in vivo, mouse; conditions: 60 mg/kg BW followed by GW4064 30 mg/kg BW, 6 h
Excerpt: as §2
Fig. 5. […] Genes were analyzed 6 h after gavage; n = 3–4, values represent the mean ± SEM. *p < 0.05; #p < 0.01.
Supplementary Figure 5. […]
Genes were analyzed 6 hours after gavage; n=3-4, values […]

[9] = parameters: method as in PMID 9126801, PMID 11352980; conditions: pilot studies; cited from earlier work

Structure (SMILES): C[C@H](CCC(=O)O)[C@H]1CC[C@H]2[C@@H]3[C@H](O)C[C@@H]4C[C@H](O)CC[C@]4(C)[C@H]3C[C@H](O)[C@]12C [CA, cholic acid]
Fgf15 and Ibabp expression in the intestine [1]: increased
Cyp7a1 levels in the liver [2]: repressed
induction of Ostβ and Kng1 pre-mRNAs [3]: not

Structure (SMILES): C[C@H](CCC(=O)O)[C@H]1CC[C@H]2[C@@H]3CC[C@@H]4C[C@H](O)CC[C@]4(C)[C@H]3C[C@H](O)[C@]12C [DCA, deoxycholic acid, reference compound]
induction of Ostβ and Kng1 pre-mRNAs [3]: robustly induced

Structure (SMILES): CC(CCC(=O)NCC(=O)O)C1CCC2C3C(O)CC4CC(O)CCC4(C)C3CCC12C (centres unmarked) [GCDCA, glycochenodeoxycholic acid, reference compound]
change in FRET ([4]; 10 μM GCDCA): markedly increased FRET

Structure (SMILES): CC(C)c1onc(-c2c(Cl)cccc2Cl)c1COc1ccc(-c2ccc3nc(C(=O)O)ccc3c2)cc1 [GSK2324]
Bsep pre-mRNA induction over the mature Bsep mRNA [5]: ~ 20 fold

Structure (SMILES): C[C@H](CCC(=O)O)[C@H]1CC[C@H]2[C@@H]3CC[C@@H]4C[C@H](O)CC[C@]4(C)[C@H]3CC[C@]12C [LCA, lithocholic acid, reference compound]
induction of Ostβ and Kng1 pre-mRNAs [3]: not

Structure (SMILES): C[C@H](CCC(=O)NCCS(=O)(=O)O)[C@H]1CC[C@H]2[C@@H]3[C@@H](O)C[C@@H]4C[C@H](O)CC[C@]4(C)[C@H]3CC[C@]12C [TUDCA, tauroursodeoxycholic]
expression of pre-mRNA over mRNA as compared to CA and TCA [1]: more strongly enhanced

Structure (SMILES): C[C@H](CCC(=O)O)[C@H]1CC[C@H]2[C@@H]3[C@@H](O)C[C@@H]4C[C@H](O)CC[C@]4(C)[C@H]3CC[C@]12C [UDCA, ursodeoxycholic acid]
affinity for human ASBT compared to native BAs [6]: identical binding affinities
Cyp7a1 levels in the liver [2]: repressed
effect on liver Cyp7a1 mRNA expression ([2]; CBDL mice, 0.5% (w/w) diet 7 days): inhibited
repression of Cyp7a1 mRNA levels ([2]; CBDL-Fxr KO mice): not
repression of Cyp7a1 mRNA levels ([2]; CBDL-WT mice): repress

re-epimerization (conversion) into the 3α-stereoisomer [7]: did not observe re-epimerization
Structure (SMILES): C[C@H](CCC(=O)O)[C@H]1CC[C@H]2[C@@H]3[C@H](O)C[C@@H]4C[C@@H](O)CC[C@]4(C)[C@H]3C[C@H](O)[C@]12C [isoCA]
induction of Ostβ and Kng1 pre-mRNAs [3]: not

re-epimerization (conversion) into the 3α-stereoisomer [7]: observed
Structure (SMILES): C[C@H](CCC(=O)O)[C@H]1CC[C@H]2[C@@H]3[C@H](O)C[C@@H]4C[C@@H](O)CC[C@]4(C)[C@H]3CC[C@]12C [isoCDCA]
induction of Ostβ and Kng1 mRNA [3]: significant induction
induction of Ostβ and Kng1 pre-mRNAs [3]: robustly induced

re-epimerization (conversion) into the 3α-stereoisomer [7]: did not observe re-epimerization
change in FRET signal induced by GCDCA ([4]; 100 μM isoBA at t = 240 s after 10 μM GCDCA): reduced the FRET signal
Structure (SMILES): C[C@H](CCC(=O)O)[C@H]1CC[C@H]2[C@@H]3CC[C@@H]4C[C@@H](O)CC[C@]4(C)[C@H]3C[C@H](O)[C@]12C [isoDCA, (5β, 3β, 12α) -dihydroxy-cholan-24-oic acid]
induction of Ostβ and Kng1 mRNA [3]: barely induced
induction of Ostβ and Kng1 pre-mRNAs [3]: robustly induced

Structure (SMILES): C[C@H](CCC(=O)O)[C@H]1CC[C@H]2[C@@H]3CC[C@@H]4C[C@@H](O)CC[C@]4(C)[C@H]3CC[C@]12C [isoLCA]
induction of Ostβ and Kng1 pre-mRNAs [3]: not

re-epimerization (conversion) into the 3α-stereoisomer [7]: observed
Structure (SMILES): C[C@H](CCC(=O)O)[C@H]1CC[C@H]2[C@@H]3[C@@H](O)C[C@@H]4C[C@@H](O)CC[C@]4(C)[C@H]3CC[C@]12C [isoUDCA]
repression of Cyp7a1 in the liver compared to UDCA [8]: even better
tolerability [9]: well tolerated without any side effects
affinity for human ASBT compared to native BAs [6]: identical binding affinities
induction of Ostβ and Kng1 mRNA [3]: barely induced
induction of Ostβ and Kng1 pre-mRNAs [3]: not
